In patent US5270204A, “Covalent angiogenin/RNase hybrids” (The President and Fellows of Harvard College, priority 1992, dated 1993) one finds kcat/Km data, which are given here for five molecules.

Series [1] has as its target human angiogenin, wild type (Homo sapiens, UniProt P03950). The conditions noted are these: 30 mM Mes, 30 mM NaCl, pH 6.0 at 37° C.; cited from earlier work.
For series [2], the target named is T1, bovine pancreatic RNase A (Bos taurus, UniProt P61823).
T1 sequence (P61823 27-150): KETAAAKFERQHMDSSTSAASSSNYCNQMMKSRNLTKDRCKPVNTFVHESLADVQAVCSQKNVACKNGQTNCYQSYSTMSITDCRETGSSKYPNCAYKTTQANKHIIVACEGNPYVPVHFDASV
The settings on record: spectrophotometric assay, 30 mM Mes, 30 mM NaCl, pH 6.0 at 25° C.; cited from earlier work.

Substrate in series [3]: Nc1ccn([C@@H]2O[C@H](CO)[C@@H](OP(=O)(O)OC[C@H]3O[C@@H](n4cnc5c(=O)[nH]c(N)nc54)[C@H](O)[C@@H]3O)[C@H]2O)c(=O)n1
Kind of series: Activity toward dinucleotide (3',5') phosphates, HPLC quantitation method. The settings on record: other: ARH-III, 30 mM Mes, 30 mM NaCl, pH 6.0 at 37° C., 0.1 mM substrate, 2.8 μM ARH-III. The series is classed as biochemical, human. As for the experimental part:
(§1) Activity toward dinucleotide (3', 5') phosphates was determined by an HPLC quantitation method as described by Shapiro et al., 1988, Anal. Biochem. 175: 450-461; Harper and Vallee, 1989, Biochemistry 28: 1875-1884. Reaction mixtures (30 μL) contained 0.1 mM substrate, 2.8 μM ARH-III and were incubated for 4-24 hours at 37° C.
(§2) The enzymatic activities of ARH-III toward tRNA, 18S and 28S rRNA, and dinucleotide substrates were very similar to those of angiogenin. […] Angiogenin and RNase A (obtained from Cooper Biochemicals) had maximal activities under these assay conditions at pH ~6.8 and ~8.1, respectively, consistent with previous results obtained by Lee & Vallee, 1989b, Biochem. and Biophys. Res. Commun. 161: 121-126. It is known that angiogenin catalyzes the cleavage of dinucleotide substrates, but at rates 5-6 orders of magnitude lower than those observed for RNase A (Shapiro et al., 1988, Anal. Biochem. 175: 450-461; Harper & Vallee, 1989, Biochemistry 28: 1875-1884). Its specificity is different from that of RNase A based on kcat /Km values for 4 different dinucleotides. In all cases, kcat /Km values were within 30% of those observed for angiogenin, and the relative specificity for the substrates was unchanged.
(§3) ^a Assays with ARHIII and angiogenin were performed in 30 mM Mes, 30
(§4) mM NaCl, pH 6.0 at 37° C.

Substrate in series [4]: Nc1ccn([C@@H]2O[C@H](CO)[C@@H](OP(=O)(O)OC[C@H]3O[C@@H](n4cnc5c(N)ncnc54)[C@H](O)[C@@H]3O)[C@H]2O)c(=O)n1
The description is as above. It is filed as biochemical, human. The settings on record: other: ARH-III, 30 mM Mes, 30 mM NaCl, pH 6.0 at 37° C., 0.1 mM substrate, 2.8 μM ARH-III. The procedure: as §1, §2, §3, §4

Substrate in series [5]: Nc1nc2c(ncn2[C@@H]2O[C@H](COP(=O)(O)O[C@H]3[C@@H](O)[C@H](n4ccc(=O)[nH]c4=O)O[C@@H]3CO)[C@@H](O)[C@H]2O)c(=O)[nH]1
Described as above. It is filed as biochemical, human. The conditions noted are these: other: ARH-III, 30 mM Mes, 30 mM NaCl, pH 6.0 at 37° C., 0.1 mM substrate, 2.8 μM ARH-III. The procedure: as §1, §2, §3, §4

Substrate in series [6]: Nc1ncnc2c1ncn2[C@@H]1O[C@H](COP(=O)(O)O[C@H]2[C@@H](O)[C@H](n3ccc(=O)[nH]c3=O)O[C@@H]2CO)[C@@H](O)[C@H]1O
Described as above. The settings on record: other: ARH-III, 30 mM Mes, 30 mM NaCl, pH 6.0 at 37° C., 0.1 mM substrate, 2.8 μM ARH-III. It is filed as biochemical, human. The procedure: as §1, §2, §3, §4

Chain of human angiogenin, wild type (P03950 25-147): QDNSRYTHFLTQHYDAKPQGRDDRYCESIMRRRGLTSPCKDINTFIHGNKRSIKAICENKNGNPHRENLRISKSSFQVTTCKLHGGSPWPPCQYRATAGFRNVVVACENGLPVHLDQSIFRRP

For `Nc1ccn([C@@H]2O[C@H](CO)[C@@H](OP(=O)(O)OC[C@H]3O[C@@H](n4cnc5c(N)ncnc54)[C@H](O)[C@@H]3O)[C@H]2O)c(=O)n1` [CpA, cytidylyl-(3'-5') adenosine], the kcat/Km is 12 M⁻¹ s⁻¹ in series [1] and 6e+06 M⁻¹ s⁻¹ in series [2].

For the molecule `Nc1ccn([C@@H]2O[C@H](CO)[C@@H](OP(=O)(O)OC[C@H]3O[C@@H](n4cnc5c(=O)[nH]c(N)nc54)[C@H](O)[C@@H]3O)[C@H]2O)c(=O)n1` [CpG, cytidylyl-(3'-5') guanosine], the kcat/Km in series [1] was 4.0 M⁻¹ s⁻¹; in series [2] it was 510000 M⁻¹ s⁻¹.

For the molecule `Nc1ncnc2c1ncn2[C@@H]1O[C@H](COP(=O)(O)O[C@H]2[C@@H](O)[C@H](n3ccc(=O)[nH]c3=O)O[C@@H]2CO)[C@@H](O)[C@H]1O` [UpA, uridylyl-(3'-5') adenosine], the figures for the kcat/Km in series [1] and in series [2] were 1.1 M⁻¹ s⁻¹ and 4e+06 M⁻¹ s⁻¹, respectively.

Turning to `Nc1nc2c(ncn2[C@@H]2O[C@H](COP(=O)(O)O[C@H]3[C@@H](O)[C@H](n4ccc(=O)[nH]c4=O)O[C@@H]3CO)[C@@H](O)[C@H]2O)c(=O)[nH]1` [UpG, uridylyl-(3'-5') guanosine], the kcat/Km in series [1] is 0.4 M⁻¹ s⁻¹; in series [2], 180000 M⁻¹ s⁻¹.

B1: ARH-III, angiogenin/RNase hybrid: human angiogenin with residues 8-22 replaced by residues 7-21 of bovine pancreatic RNase A (Homo sapiens) (protein)
chain: QDNSRYTKFERQHMDSSTSAASDRYCESIMRRRGLTSPCKDINTFIHGNKRSIKAICENKNGNPHRENLRISKSSFQVTTCKLHGGSPWPPCQYRATAGFRNVVVACENGLPVHLDQSIFRRP
notes: the coding region for Met-(-1) through Asn-3; fragment C consisted of the coding region from Arg-24 through Pro-123; made in house; host or cells: E. coli W3110 (plasmid pARH-III)
In the case of B1, the kcat/Km came out at 3.4 M⁻¹ s⁻¹ in series [3], 13 M⁻¹ s⁻¹ in series [4], 0.4 M⁻¹ s⁻¹ in series [5] and 0.8 M⁻¹ s⁻¹ in series [6].

A word on the kcat/Km: it is the turnover number divided by the Michaelis constant.
